The results in this text go back to patent US20250074901A1, “NOVEL HETEROARYL COMPOUNDS” (ICAGEN, LLC, priority 2021, published 2025).

One may read the Emax as the size of the effect at its maximum, as opposed to the concentration needed. As usually defined, the EC50 is the concentration needed to bring the measured effect to its halfway point. Read a high EC50 as a less potent agent.

The structures appear in SMILES notation.

The target of the test is T1, Kv7.2 (Homo sapiens, UniProt O43526).
T1 construct: expressed in transfected cells
Nature of the test: Activation of Kv7.2 (in vitro assay, concentration response curve). The following applies: for Emax: Kv7.2 activation max %; for EC50: activation of Kv7.2. Format: cell-based. The gist of the method: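 Agonist activity was measured in vitro across a range of compound concentrations and plotted as a sigmoidal concentration–response curve. EC50 is the concentration giving 50% of that compound's own maximal response (Emax).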

`CC(C)(F)CNC(=O)NCc1ccnc(OC(F)F)c1` [Example 39, 1-[[2-(difluoromethoxy)pyridin-4-yl]methyl]-3-(2-fluoro-2-methylpropyl)urea] showed an Emax of 55% and an EC50 of 1950 nM.
The molecule `O=C(NCc1ccnc(OC(F)F)c1)NCC1(F)CCC1` [Example 40, 1-[[2-(difluoromethoxy)pyridin-4-yl]methyl]-3-[(1-fluorocyclobutyl)methyl]urea] came in with an Emax of 58% and an EC50 of 640 nM.
The matching figures for `O=C(NCc1ccnc(-n2cnc(C(F)(F)F)c2)c1)NCC1CCC1` [Example 41, 1-(cyclobutylmethyl)-3-[[2-[4-(trifluoromethyl)imidazol-1-yl]pyridin-4-yl]methyl]urea]: 40% and 1130 nM.
Molecule `O=C(NCc1ccnc(OC(F)F)c1)N[C@H]1C[C@H](C(F)(F)F)C1` [Example 42, 1-[[2-(difluoromethoxy)pyridin-4-yl]methyl]-3-[(1r,3r)-3-(trifluoromethyl)cyclobutyl]urea] showed an Emax of 58% and a concentration for a half-maximal effect (EC50) of 70 nM.
The matching figures for `O=C(NCc1ccnc(OCC(F)(F)F)c1)NC1CCCC1` [Example 43, 1-cyclopentyl-3-[[2-(2,2,2-trifluoroethoxy)pyridin-4-yl]methyl]urea]: 75% and 140 nM.
The molecule `CC(C)(C)CC1(NC(=O)NCc2ccnc(OC(F)F)c2)CC1` [Example 44, 1-[[2-(difluoromethoxy)pyridin-4-yl]methyl]-3-[1-(2,2-dimethylpropyl)cyclopropyl]urea] had an Emax of 75% and a half-maximal effective concentration (EC50) of 480 nM.
The like results for `O=C(NCc1ccnc(OC(F)F)c1)NC1CCC1` [Example 45, 1-cyclobutyl-3-[[2-(difluoromethoxy)pyridin-4-yl]methyl]urea] were, in that order, 62% and 1230 nM.
The matching figures for `O=C(NCc1ccnc(OC(F)F)c1)NCC1CCCC1` [Example 46, 1-(cyclopentylmethyl)-3-[[2-(difluoromethoxy)pyridin-4-yl]methyl]urea]: 64% and 210 nM.
The molecule `O=C(NCc1ccnc(OC(F)F)c1)NC12CC(C1)C2` [Example 47, 1-(1-bicyclo[1.1.1]pentanyl)-3-[[2-(difluoromethoxy)pyridin-4-yl]methyl]urea] had a maximal response (Emax) of 65% and an EC50 of 1510 nM.
The matching figures for `O=C(NCc1ccnc(OC(F)F)c1)NC12CCC(F)(CC1)CC2` [Example 48, 1-[[2-(difluoromethoxy)pyridin-4-yl]methyl]-3-(4-fluoro-1-bicyclo[2.2.2]octanyl)urea]: 54% and 160 nM.
The matching figures for `COC12CC(NC(=O)NCc3ccnc(OC(F)F)c3)(C1)C2` [Example 49, 1-[[2-(difluoromethoxy)pyridin-4-yl]methyl]-3-(3-methoxy-1-bicyclo[1.1.1]pentanyl)urea]: 48% and 1830 nM.
`O=C(NCc1ccnc(OC(F)F)c1)NC1(C2CCC2)CC1` [Example 50, 1-(1-cyclobutylcyclopropyl)-3-[[2-(difluoromethoxy)pyridin-4-yl]methyl]urea] registered a maximum response (Emax) of 56% and a 50% effective concentration (EC50) of 300 nM.
`O=C(NCc1ccnc(OCC2CCC2)c1)N[C@H]1C[C@H](C(F)(F)F)C1` [Example 54, 1-[[2-(cyclobutylmethoxy)pyridin-4-yl]methyl]-3-[(1r,3r)-3-(trifluoromethyl)cyclobutyl]urea] showed an Emax of 62% and an EC50 of 150 nM.
The molecule `O=C(NCc1ccnc(OCC2CC2)c1)N[C@H]1C[C@H](C(F)(F)F)C1` [Example 55, 1-[[2-(cyclopropylmethoxy)pyridin-4-yl]methyl]-3-[(1r,3r)-3-(trifluoromethyl)cyclobutyl]urea] yielded a maximal effect (Emax) of 51% and an EC50 of 300 nM.
The like results for `O=C(NCc1ccnc(OCC(F)F)c1)N[C@H]1C[C@H](C(F)(F)F)C1` [Example 56, 1-[[2-(2,2-difluoroethoxy)pyridin-4-yl]methyl]-3-[(1r,3r)-3-(trifluoromethyl)cyclobutyl]urea] were, in that order, 56% and 340 nM.
In turn, `CC(F)(F)c1cc(CNC(=O)N[C@H]2C[C@H](C(F)(F)F)C2)ccn1` [Example 57, 1-[[2-(1,1-difluoroethyl)pyridin-4-yl]methyl]-3-[(1r,3r)-3-(trifluoromethyl)cyclobutyl]urea] returned an Emax of 60% and a 50% effective concentration (EC50) of 610 nM.
The like results for `O=C(NCc1ccnc(C(F)(F)F)c1)N[C@H]1C[C@H](C(F)(F)F)C1` [Example 58, 1-[(1r,3r)-3-(trifluoromethyl)cyclobutyl]-3-[[2-(trifluoromethyl)pyridin-4-yl]methyl]urea] were, in that order, 42% and 340 nM.
The like results for `CCC1CC(NC(=O)NCc2ccnc(OC(F)F)c2)C1` (stereo not shown) [Example 60, 1-[[2-(difluoromethoxy)pyridin-4-yl]methyl]-3-(3-ethylcyclobutyl)urea] were, in that order, 77% and 140 nM.
Consider `O=C(NCc1ccnc(OC(F)F)c1)NCC1CC(C(F)(F)F)C1` (stereo not shown) [Example 62, 1-[[2-(difluoromethoxy)pyridin-4-yl]methyl]-3-[[3-(trifluoromethyl)cyclobutyl]methyl]urea], for which the maximal effect (Emax) is 43% and the midpoint of the response, the EC50, lay at 750 nM.
The matching figures for `N#CCOc1cc(CNC(=O)N[C@H]2C[C@H](C(F)(F)F)C2)ccn1` [Example 63, 1-[[2-(cyanomethoxy)pyridin-4-yl]methyl]-3-[(1r,3r)-3-(trifluoromethyl)cyclobutyl]urea]: 66% and 250 nM.
For `O=C(NCc1ccnc(CC(F)(F)F)c1)N[C@H]1C[C@H](C(F)(F)F)C1` [Example 64, 1-[[2-(2,2,2-trifluoroethyl)pyridin-4-yl]methyl]-3-[(1r,3r)-3-(trifluoromethyl)cyclobutyl]urea], the maximum response (Emax) was determined as 70% and it took 340 nM to reach a half-maximal effect (EC50).
The like results for `CC1CC(NC(=O)NCc2ccnc(OC(F)F)c2)C1` (stereo not shown) [Example 65, 1-[[2-(difluoromethoxy)pyridin-4-yl]methyl]-3-(3-methylcyclobutyl)urea] were, in that order, 76% and 450 nM.
`C#CC1CC(NC(=O)NCc2ccnc(OC(F)F)c2)C1` (stereo not shown) [Example 66, 1-[[2-(difluoromethoxy)pyridin-4-yl]methyl]-3-(3-ethynylcyclobutyl) urea] gave an Emax of 56% and an EC50 of 530 nM.
The matching figures for `O=C(NCc1ccnc(OC(F)F)c1)N[C@H]1C[C@H](F)C1` [Example 67, 1-[[2-(difluoromethoxy)pyridin-4-yl]methyl]-3-((1r,3r)-3-fluorocyclobutyl)urea]: 52% and 1870 nM.
`O=C(NCc1ccnc(OC(F)F)c1)NC12CCC(C(F)(F)F)(CC1)CC2` [Example 68, 1-[[2-(difluoromethoxy)pyridin-4-yl]methyl]-3-[4-(trifluoromethyl)-1-bicyclo[2.2.2]octanyl]urea] registered an Emax of 66% and a concentration giving a half-maximal response (EC50) of 2550 nM.
The matching figures for `O=C(NCc1ccnc(OCC(F)(F)F)c1)NCC1CC(C(F)(F)F)C1` (stereo not shown) [Example 71, 1-[[2-(2,2,2-trifluoroethoxy)pyridin-4-yl]methyl]-3-[[3-(trifluoromethyl)cyclobutyl]methyl]urea]: 53% and 230 nM.
The like results for `O=C(NCc1ccnc(OCC(F)(F)F)c1)NCC12CC(F)(C1)C2` [Example 75, 1-[(3-fluoro-1-bicyclo[1.1.1]pentanyl)methyl]-3-[[2-(2,2,2-trifluoroethoxy)pyridin-4-yl]methyl]urea] were, in that order, 40% and 600 nM.
Turning to `O=C(NCc1ccnc(OC(F)F)c1)N[C@@H]1CC[C@H]2CCC[C@H]21` [Example 76, 1-[(1R,3aR,6aR)-1,2,3,3a,4,5,6,6a-octahydropentalen-1-yl]-3-[[2-(difluoromethoxy)pyridin-4-yl]methyl]urea], the Emax is 79% and the EC50 came to 20 nM.
Turning to `O=C(NCc1ccnc(OC(F)F)c1)NC1CC(C2CC2)C1` (stereo not shown) [Example 77, 1-(3-cyclopropylcyclobutyl)-3-[[2-(difluoromethoxy)pyridin-4-yl]methyl]urea], the Emax worked out at 62% and the EC50 is 90 nM.
Molecule `O=C(NCc1ccnc(OC(F)F)c1)NC1CC2CCCC2C1` (stereo not shown) [Example 78, 1-(1,2,3,3a,4,5,6,6a-octahydropentalen-2-yl)-3-[[2-(difluoromethoxy)pyridin-4-yl]methyl]urea] registered an Emax of 62% and a 50% effective concentration (EC50) of 20 nM.
The molecule `O=C(NCc1ccnc(OC(F)F)c1)NC12CCC(F)(CC1)CC2O` (stereo not shown) [Example 82, 1-[[2-(difluoromethoxy)pyridin-4-yl]methyl]-3-(4-fluoro-2-hydroxy-1-bicyclo[2.2.2]octanyl)urea] had an Emax of 48% and an EC50 of 1030 nM.
The like results for `COc1cccc(NC(=O)NCc2ccnc(OC(F)F)c2)c1` [Example 83, 1-[[2-(difluoromethoxy)pyridin-4-yl]methyl]-3-(3-methoxyphenyl)urea] were, in that order, 45% and 2470 nM.
In turn, `O=C(NCc1ccnc(OC(F)F)c1)Nc1cccc(Cl)n1` [Example 84, 1-(6-chloropyridin-2-yl)-3-[[2-(difluoromethoxy)pyridin-4-yl]methyl]urea] returned an Emax of 42% and a half-maximal effective concentration (EC50) of 210 nM.
The like results for `O=C(NC(CO)c1ccnc(OC(F)F)c1)NC12CCC(F)(CC1)CC2` (stereo not shown) [Example 85, 1-[1-[2-(difluoromethoxy)pyridin-4-yl]-2-hydroxyethyl]-3-(4-fluoro-1-bicyclo[2.2.2]octanyl)urea] were, in that order, 74% and 420 nM.
The like results for `O=C(NCc1ccnc(OC(F)F)c1)NC[C@H]1C[C@@H](C(F)(F)F)C1` [Example 87, 1-[[2-(difluoromethoxy)pyridin-4-yl]methyl]-3-[[3-(1r,3r)-(trifluoromethyl)cyclobutyl]methyl]urea] were, in that order, 40% and 850 nM.
